According to patent publication US4542123A (Massachusetts Institute of Technology, priority 1982, dated 1985):
Entries after “also recorded” stand apart in the source; their conditions may differ.

Columns and labels:
[1] = Plasma amino acid levels after glucose ingestion (Example I, Table 1); assay type: in vivo, human
Description: (§1) Six healthy, non-obese, fasting subjects each received, on different days 0, 6, 12.5, 25 or 50 g of glucose (Glucola) in a total volume of 100 ml.
(§2) Following a protocol approved by the Massachusetts Institute of Technology Committee on the Use of Humans as Experimental Subjects, 6 healthy volunteer outpatients, aged 25-33 years, participated in the study; 3 were males and 3 females. Mean weight was 60 kg for the women and 70 for the men; all subjects were within 10% of their ideal body weight as determined by Metropolitan Life Insurance Company tables. […] Subjects were asked to take meals rich in carbohydrate content (about 300 g/day) for 3 days before beginning the study. On 5 separate days, each subject fasted from 8 p.m. until 9 the next morning and then received a load of 0, 6, 12.5, 25 or 50 g of glucose (caffeine-free glucola) dissolved in water in a total volume of 100 ml; the order of doses was randomized. Venous blood samples were drawn from the antecubital vein through an indwelling catheter at 0, 60 and 120 min for all doses and additionally at 30 and 180 min for the 12.5, 25 and 50 g doses. Blood was collected in heparanized tubes; after centrifugation plasma was stored at -20° C. until analyzed. […] Glucose was analyzed spectrophotometrically after reaction with O-toluidine in hot acidic acid (Sigma Bulletin #635;15). Insulin was measured using a commercial radioimmunoassay kit by a double antibody method (Bio-RIA, Louisville, Ky.). Plasma tryptophan was measured fluorometrically on 20 μl plasma aliquots by the method of Denckla and Dewey, J. Lab. Clin. Med. 69: 160-169, 1967, as modified by Lehman, Scand. J. Clin. Lab. Invest. 28: 49-55, 1971. Branched-chain amino acids and aromatic amino acids were measured in 500 μl aliquots of plasma, deproteinized with sulfosalicylic acid, using a Beckman amino acid analyzer (Beckman Instruments, Palo Alto, Calif., Model 119C).
(§3) Data, given as means ±SE errors, were analyzed by two-way analysis of variance; factors compared were dose and time. The Scheffe test was employed to test the statistical significance of differences; p<0.05 was considered significant. Areas under the curves were evaluated by the method of trapezoid approximation. Student tests for paired data were used to evaluate the significance of changes in individual amino acids. Amino acid concentrations after treatments for each subject were also expressed as a percentage of that day's pretreatment levels; mean percent changes were then calculated for each treatment and time interval.
Sum of the LNAA: total concentration of leucine, isoleucine, valine,
the sum of the LNAA, measured 0, 60 and 120 min after 6 nonobese, fasting
subjects ingested 0, 6, 12.5, 25 or 50 g of glucose. All plasma amino
acids, except tryptophan, were measured on a Beckman amino acid analyzer.
Tryptophan was measured by the method of Denckla and Dewey. Data are
expressed as means ± S.E.M.

[2] = clinical; details: in vivo
Description: as §1
as §2, with “Venous blood samples were drawn from the antecubital vein through an indwelling catheter at 0, 60 and 120 min for all doses and additionally at 30 and 180 min for the 12.5, 25 and 50 g doses.” left out, “Clin. Med. 69: 160-169, 1967, as modified by Lehman, Scand. J. Clin. Lab. Invest. 28: 49-55, 1971.” left out
Data, given as means ±SE errors, were analyzed by two-way analysis of variance; factors compared were dose and time. […] Areas under the curves were evaluated by the method of trapezoid approximation. […] Amino acid concentrations after treatments for each subject were also expressed as a percentage of that day's pretreatment levels; mean percent changes were then calculated for each treatment and time interval.

[3] = Plasma insulin after glucose ingestion, radioimmunoassay (Example I); assay type: in vivo, human
Description: as §1, §2, §3

Mean plasma glucose concentration ([2]; human): 83±2.2 mg % | concentration at 0.5 h ([2]; human, po, Mean plasma glucose concentration): 1050 ± 86 µg/mL | Time for plasma glucose to return to baseline [2]: 60 to 120 min
Structure (SMILES): O=C[C@H](O)[C@@H](O)[C@H](O)[C@H](O)CO [Glucose, glucose]
Plasma Iso level ([1]; glucose 25 g, 0 min): 71 ± 6 nmol/mL | Plasma LNAA (sum) ([1]; glucose 25 g, 0 min): 639 ± 79 nmol/mL | Plasma Leu level ([1]; glucose 25 g, 0 min): 130 ± 13 nmol/mL | Plasma Met level ([1]; glucose 25 g, 0 min): 26 ± 3 nmol/mL | Plasma Phe level ([1]; glucose 25 g, 0 min): 56 ± 3 nmol/mL | Plasma Trp level ([1]; glucose 25 g, 0 min): 47 ± 2 nmol/mL | Plasma Tyr level ([1]; glucose 25 g, 0 min): 63 ± 3 nmol/mL | Plasma Val level ([1]; glucose 25 g, 0 min): 294 ± 50 nmol/mL | Trp/LNAA ([1]; glucose 25 g, 0 min): .073 | Plasma Iso level ([1]; glucose 25 g, 60 min): 48 ± 4 nmol/mL | Plasma LNAA (sum) ([1]; glucose 25 g, 60 min): 466 ± 45 nmol/mL | Plasma Leu level ([1]; glucose 25 g, 60 min): 84 ± 10 nmol/mL | Plasma Met level ([1]; glucose 25 g, 60 min): 21 ± 2 nmol/mL | Plasma Phe level ([1]; glucose 25 g, 60 min): 47 ± 4 nmol/mL | Plasma Trp level ([1]; glucose 25 g, 60 min): 42 ± 2 nmol/mL | Plasma Tyr level ([1]; glucose 25 g, 60 min): 49 ± 2 nmol/mL | Plasma Val level ([1]; glucose 25 g, 60 min): 218 ± 29 nmol/mL | Trp/LNAA ([1]; glucose 25 g, 60 min): .091 | Plasma Iso level ([1]; glucose 25 g, 120 min): 46 ± 4 nmol/mL | Plasma LNAA (sum) ([1]; glucose 25 g, 120 min): 454 ± 40 nmol/mL | Plasma Leu level ([1]; glucose 25 g, 120 min): 91 ± 8 nmol/mL | Plasma Met level ([1]; glucose 25 g, 120 min): 19 ± 2 nmol/mL | Plasma Phe level ([1]; glucose 25 g, 120 min): 41 ± 2 nmol/mL | Plasma Trp level ([1]; glucose 25 g, 120 min): 41 ± 3 nmol/mL | Plasma Tyr level ([1]; glucose 25 g, 120 min): 46 ± 2 nmol/mL | Plasma Val level ([1]; glucose 25 g, 120 min): 212 ± 26 nmol/mL | Trp/LNAA ([1]; glucose 25 g, 120 min): .089 | Plasma Iso level ([1]; glucose 50 g, 0 min): 61 ± 4 nmol/mL | Plasma LNAA (sum) ([1]; glucose 50 g, 0 min): 573 ± 60 nmol/mL | Plasma Leu level ([1]; glucose 50 g, 0 min): 114 ± 11 nmol/mL | Plasma Met level ([1]; glucose 50 g, 0 min): 26 ± 2 nmol/mL | Plasma Phe level ([1]; glucose 50 g, 0 min): 50 ± 2 nmol/mL | Plasma Trp level ([1]; glucose 50 g, 0 min): 46 ± 2 nmol/mL | Plasma Tyr level ([1]; glucose 50 g, 0 min): 59 ± 4 nmol/mL | Plasma Val level ([1]; glucose 50 g, 0 min): 262 ± 40 nmol/mL | Trp/LNAA ([1]; glucose 50 g, 0 min): .080 | Plasma Iso level ([1]; glucose 50 g, 60 min): 48 ± 2 nmol/mL | Plasma LNAA (sum) ([1]; glucose 50 g, 60 min): 469 ± 52 nmol/mL | Plasma Leu level ([1]; glucose 50 g, 60 min): 93 ± 11 nmol/mL | Plasma Met level ([1]; glucose 50 g, 60 min): 21 ± 2 nmol/mL | Plasma Phe level ([1]; glucose 50 g, 60 min): 50 ± 4 nmol/mL | Plasma Trp level ([1]; glucose 50 g, 60 min): 40 ± 1 nmol/mL | Plasma Tyr level ([1]; glucose 50 g, 60 min): 43 ± 3 nmol/mL | Plasma Val level ([1]; glucose 50 g, 60 min): 215 ± 32 nmol/mL | Trp/LNAA ([1]; glucose 50 g, 60 min): .085 | Plasma Iso level ([1]; glucose 50 g, 120 min): 36 ± 4 nmol/mL | Plasma LNAA (sum) ([1]; glucose 50 g, 120 min): 372 ± 50 nmol/mL | Plasma Leu level ([1]; glucose 50 g, 120 min): 72 ± 10 nmol/mL | Plasma Met level ([1]; glucose 50 g, 120 min): 18 ± 2 nmol/mL | Plasma Phe level ([1]; glucose 50 g, 120 min): 37 ± 2 nmol/mL | Plasma Trp level ([1]; glucose 50 g, 120 min): 35 ± 2 nmol/mL | Plasma Tyr level ([1]; glucose 50 g, 120 min): 40 ± 4 nmol/mL | Plasma Val level ([1]; glucose 50 g, 120 min): 170 ± 30 nmol/mL | Trp/LNAA ([1]; glucose 50 g, 120 min): .094 | Mean percent reductions of LNAA, dose-dependence ([1]; healthy fasting subjects, most clearly observed after 120 min): tended to exhibit dose-dependence; also recorded: dose-related decreases in plasma LNAA concentrations | Glucose doses needed to increase the plasma TRP/LNAA ratio ([1]; healthy young fasting subjects): 25 to 50 g | Mean absolute LNAA concentrations, dose-related decrease ([1]; high intra- and inter-individual variations in basal LNAA): no significant dose-related decreases in mean absolute LNAA concentrations | Tryptophan/LNAA ratio ([1]; smaller reduction in plasma tryptophan): became elevated | Glucose dose sufficient to decrease LNAA ([1]; some subjects): 6 g | Glucose dose probably required to reduce plasma LNAA ([1]; subject 2): ~12.5 g | Glucose dose that may have been needed to reduce plasma LNAA ([1]; subject 4): ~25 g | Glucose dose that may have been sufficient to reduce plasma LNAA ([1]; subjects 1, 3, 5 and 6, one or more of the times tested): ~6 g | Elevation in insulin, 50-g vs 25-g dose ([3]; 50 g vs 25 g glucose): greater elevation in insulin than the 25-g dose in 4 of the 6 subjects | Insulin levels ([3]; 30 min after 12.5, 25 or 50 g of glucose): significantly elevated | Mean insulin concentration ([3]; before ingestion (baseline)): 9±0.9 μU/ml | Mean insulin concentration ([3]; glucose 12.5 g, 30 min): 21.3±3.8 μU/ml | Mean insulin concentration ([3]; glucose 25 g, 30 min): 44±5.0 μU/ml | Mean insulin concentration ([3]; glucose 50 g, 30 min): 58±6.9 μU/ml
